Reference: patent US10183032B2, “Methods for treating bacterial infection” (Ball State Innovation Corporation, priority 2012, dated 2019)

How the values were obtained:
Staphylococcus aureus [1] = test: Staphylococcus aureus host cell invasion assay in HUVEC, flow cytometry; type: cell-based; conditions: HUVEC; for Internalized bacteria (% control ± SEM), Structural analog: 10 μM in PEG, 18-20 hours prior to infection, fluorescently labeled S. aureus 1 hour; for inhibition of invasion compared with ML 141 (Table 1): 10 μM, flow cytometry; for activity at 10 µM: Staphylococcus aureus, 1 h, read-out: Internalized bacteria (% control ± SEM), Structural analog
Procedure: In one embodiment, human umbilical vein endothelial cells (HUVEC, Life Technologies) are cultured in M200 medium supplemented with LSGS. RAW 264.7 cells (American Type Culture Collection, ATCC, Manassas, Va.) are cultured in RPMI supplemented with 10% FBS and L-glutamine. All cell types are maintained at 5% CO2, 37° C., in 75 cm^2 vented cap flasks (Thermo-Fisher). For assays, cultured cells are plated at 1×10^5 cells/ml in 35 mm culture dishes coated with Attachment Factor. The next day, cells are pretreated in culture medium containing the vehicle control or ML 141. For compound delivery, ML 141 first is suspended into DMSO or into PEG at a concentration of 5 mM. The 5 mM solution is diluted to 1 mM in the solvent and then diluted to the final concentration for each experiment in either serum-containing or serum-free medium. For vehicle control treatment, the same volume of PEG or DMSO as that of ML 141 is added to medium. The following day, the invasion assay is performed. For the shorter duration experiments, compound is added on the same day as the invasion assay, 1 hour prior to bacteria.
In another embodiment, HUVEC (Millipore, Billerica, Mass.) are cultured in EndoGRO LS Complete Media (Millipore) and are maintained at 5% CO2, 37° C., in 75 cm^2 vented cap flasks (Thermo-Fisher). For the invasion assay, cultured cells are plated at 1×10^4 cells/ml in 96-well culture dishes coated with Attachment Factor. The next day, cells are pretreated in culture medium containing the vehicle control, ML 141, or ML 141 structural analog. For compound delivery, ML 141 and structural analogs first are suspended into PEG at a concentration of 5 mM. The 5 mM solution is diluted to 1 mM in the solvent and then is diluted to the final concentration for each experiment in serum containing medium. For vehicle control treatment, the same volume of PEG as that of ML 141 or of ML 141 structural analog is added to the medium. The following day, the invasion assay is performed. Bacteria are added directly to medium containing vehicle control, ML 141, or the ML 141 structural analog.
Two days prior to the assay, TSB is inoculated with S. aureus (American Type Culture Collection #29213) and incubated overnight (225 rpm, 37° C.). Bacteria are subcultured the next day into fresh TSB. On the day of the assay, bacteria are pelleted (10000×g, 37° C., 3 min), are washed in saline, are pelleted as above, are resuspended in saline, then fluorescently labeled by incubation with rabbit anti-mouse IgG Alexa Fluor 488 (final concentration 8 μg/ml, RT, 20 min). Protein A, a S. aureus cell surface protein, avidly binds IgG thereby labeling the bacteria. Labeled bacteria are washed twice as above and are resuspended to 3×10^8 CFU/ml in saline. Host cells are incubated with the bacteria for 1 hour (1.2×10^8 CFU/ml for same-day recovery, 5×10^6 for recovery after 48 hours, 1.4×10^7 CFU/ml; 5% CO2, 37° C.). Following infection, extracellular bacteria are removed by extensive washes with PBS and incubation of the host cells with antimicrobials that have limited mammalian membrane permeability (lysostaphin, 20 μg/ml and gentamicin, 50 μg/ml; 45 min for same-day recovery studies, 48 hours for 2-day recovery studies; 5% CO2, 37° C.). To detect the level of infection using flow cytometry, cells that have been infected with fluorescently-labeled bacteria are washed extensively with PBS, lifted from 96-well plate by incubation with trypsin, washed extensively in FACS buffer (2% BSA/0.1% sodium azide/PBS), fixed (FACS buffer containing 0.74% formaldehyde), and are counted using an Accuri flow cytometer (BD, Franklin Lakes, N.J.). They are also lifted from culture dishes using cell scrapers, pelleted, fixed (1% BSA/0.74% formaldehyde/PBS), and are counted using an Accuri flow cytometer. For enumeration of the infecting bacteria, intracellular bacteria are released from host cells using 1% saponin/PBS (20 min, 5% CO2, 37° C.) and serial dilutions are plated on TSA (16 hours, 37° C.). […]

[2] = tested on: Human umbilical vein endothelial cells; test: Cytotoxicity by propidium iodide exclusion, HUVEC; type: cell-based; conditions: for Cytotoxicity (in words): 10 μM, 18-20 h, Tables 4 and 5; for Mean fluorescence intensity (×10^4 ± SEM), Compound (10 μM): HUVEC pretreated 18-20 h
Staphylococcus aureus [3] = test: Assessment of bactericidal activity (HUVEC media); type: cell-based; conditions: for CFU (×10^8 ± SEM), Compound (10 μM): 1.2 × 10^8 CFU S. aureus, 1 h in HUVEC media
Procedure: FIG. 6B illustrates that neither cytotoxicity nor bactericidal activity is detected. Cultures of Staphylococcus aureus that had been incubated with the vehicle control DMSO or with ML 141 (1 hour, 37° C., 225 rpm) were serially diluted, plated onto blood agar, and incubated (18 hours, 37° C.). Colonies were enumerated and colony forming units (CFU)/ml determined. CFU/ml were not different amongst the groups (p>0.05 by t-test; n=2/treatment). […]

CDC42 = CDC42 (Homo sapiens, UniProt P60953); test: BODIPY-FL-GTP binding to CDC42
Staphylococcus aureus [4] = test: Intracellular bacteria per host cell (HUVEC), fluorescence microscopy; type: cell-based; conditions: 10 μmol/L, 18-20 h, 100 cells counted
RAW 264.7 cells = test: Cytotoxicity by propidium iodide, RAW 264.7 cells; type: cell-based; conditions: RAW 264.7 pretreated 18-20 h
Staphylococcus aureus [5] = test: Assessment of bactericidal activity (DMEM, 10% fetal bovine serum); type: cell-based; conditions: 3.2 × 10^6 CFU S. aureus, 1 h in DMEM with 10% fetal bovine serum; head prints 20 mM

CDC42, sequence (P60953 whole entry): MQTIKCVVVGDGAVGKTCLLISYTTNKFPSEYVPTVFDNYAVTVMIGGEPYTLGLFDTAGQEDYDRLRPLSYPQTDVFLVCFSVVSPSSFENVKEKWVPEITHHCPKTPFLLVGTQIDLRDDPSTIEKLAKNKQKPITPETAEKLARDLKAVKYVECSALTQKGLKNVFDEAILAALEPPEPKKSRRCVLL

SMILES	Internalized bacteria (% control ± SEM), Structural analog (Staphylococcus aureus [1]) [% % control]	Mean fluorescence intensity (×10^4 ± SEM), Compound (10 μM) [2]	CFU (×10^8 ± SEM), Compound (10 μM) (Staphylococcus aureus [3])	Intracellular bacteria/cell (±SEM), Structural analog (Staphylococcus aureus [4]) [bacteria/cell]	Mean fluorescence intensity (×10^3 ± SEM), Compound (10 μM) (RAW 264.7 cells)	CFU/mL (×10^9 ± SEM), Compound (Staphylococcus aureus [5])	other results
COc1ccc(C2=NN(c3ccc(S(N)(=O)=O)cc3)C(c3ccc(Cl)cc3)C2)cc1 (stereo not shown) [RSM 04]	11 ± 1	4.6 ± 0.2 ×10^4	3.8 ± 0.8 ×10^8 CFU	–	–	–	inhibition of invasion compared with ML 141 (Table 1) (Staphylococcus aureus [1]): inhibited invasion more than ML 141; Cytotoxicity (in words) [2]: cytotoxic
NS(=O)(=O)c1ccc(N2N=C(c3ccccc3)CC2c2ccc3c(c2)OCO3)cc1 (stereo not shown) [RSM 05]	–	3.9 ± 0.2 ×10^4	8.0 ± 1.7 ×10^8 CFU	–	–	–	activity at 10 µM (Staphylococcus aureus [1]): 38 ± 3%; IC50 (CDC42): 3.4 µM
COc1ccc(C2=NN(c3ccc(S(N)(=O)=O)cc3)C(c3ccccc3)C2)cc1 (stereo not shown) [RSM 07]	–	2.5 ± 0.4 ×10^4	11.5 ± 1.1 ×10^8 CFU	–	–	–	activity at 10 µM (Staphylococcus aureus [1]): 34 ± 2%; GTP binding (IC50) (CDC42): only slightly higher; IC50 (CDC42): 6.2 µM
COCCOc1ccc(C2CC(c3ccccc3)=NN2c2ccc(S(N)(=O)=O)cc2)cc1 (stereo not shown) [RSM 11]	61 ± 2	–	–	–	–	–	–
COCCOc1ccc(C2CC(c3ccc(OC)cc3)=NN2c2ccc(S(N)(=O)=O)cc2)cc1 (stereo not shown) [RSM 12]	57 ± 3	–	–	–	–	–	–
COc1cc(C2CC(c3ccccc3)=NN2c2ccc(S(N)(=O)=O)cc2)cc(OC)c1OC (stereo not shown) [RSM 13]	62 ± 5	–	–	–	–	–	–
COc1ccc(C2=NN(c3ccc(S(N)(=O)=O)cc3)C(c3cc(OC)c(OC)c(OC)c3)C2)cc1 (stereo not shown) [RSM 14]	71 ± 3	–	–	–	–	–	–
COc1ccc(C2CC(c3ccccc3)=NN2c2ccc(S(N)(=O)=O)cc2)cc1OC (stereo not shown) [RSM 15]	–	4.0 ± 0.4 ×10^4	10.1 ± 1.0 ×10^8 CFU	–	–	–	inhibition of invasion compared with ML 141 (Table 1) (Staphylococcus aureus [1]): inhibited invasion more than ML 141; activity at 10 µM (Staphylococcus aureus [1]): 45 ± 1%; IC50 (CDC42): 2.2 µM
COCCOc1ccc(C2=NN(c3ccc(S(N)(=O)=O)cc3)C(c3ccc(OC)cc3)C2)cc1 (stereo not shown) [RSM 17]	67 ± 8	–	–	–	–	–	–
COCCOc1ccc(C2=NN(c3ccc(S(N)(=O)=O)cc3)C(c3ccc(OCCOC)cc3)C2)cc1 (stereo not shown) [RSM 18]	76 ± 7	–	–	–	–	–	–
COc1ccc(C2C(C)C(c3ccccc3)=NN2c2ccc(S(N)(=O)=O)cc2)cc1 (stereo not shown) [RSM 19]	–	2.6 ± 0.01 ×10^4	9.4 ± 1.0 ×10^8 CFU	–	–	–	activity at 10 µM (Staphylococcus aureus [1]): 61 ± 2%; IC50 (CDC42): 13.5 µM
COCCOc1ccc(C2=NN(c3ccc(S(N)(=O)=O)cc3)C(c3ccc(Cl)cc3)C2)cc1 (stereo not shown) [RSM 20]	–	2.1 ± 0.2 ×10^4	10.0 ± 0.2 ×10^8 CFU	–	–	–	activity at 10 µM (Staphylococcus aureus [1]): 61 ± 4%; IC50 (CDC42): 46.5 µM
COc1ccc(C2C3Cc4ccccc4C3=NN2c2ccc(S(N)(=O)=O)cc2)cc1 (stereo not shown) [RSM 21]	–	2.8 ± 0.09 ×10^4	15.0 ± 1.1 ×10^8 CFU	–	–	–	activity at 10 µM (Staphylococcus aureus [1]): 79 ± 3%; GTP binding (IC50) (CDC42): only slightly higher; IC50 (CDC42): 5.5 µM
COc1ccc(C2(C)CC(c3ccccc3)=NN2c2ccc(S(N)(=O)=O)cc2)cc1 (stereo not shown) [RSM 26]	40 ± 3	26.8 ± 2.1 ×10^4	0.8 ± 1.1 ×10^8 CFU	–	–	–	Cytotoxicity (in words) [2]: cytotoxic; Bactericidal activity (in words) (Staphylococcus aureus [3]; S. aureus incubated 1 h with compound, FIG. 6B, Tables 6 and 7): bactericidal
COc1ccc(CCC(=NNc2ccc(S(N)(=O)=O)cc2)c2ccccc2)cc1 [RSM 27]	–	–	–	4.4 ± 0.5	1.0 ± 0.1 ×10^3	2.4 ± 0.6 ×10^9 CFU/mL	–
CN(C)c1ccc(C2CC(c3ccccc3)=NN2c2ccc(S(N)(=O)=O)cc2)cc1 (stereo not shown) [RSM 28]	–	–	–	1.4 ± 0.3	11 ± 2.0 ×10^3	1.8 ± 0.05 ×10^9 CFU/mL	–
CC(=O)Nc1ccc(C2CC(c3ccccc3)=NN2c2ccc(S(N)(=O)=O)cc2)cc1 (stereo not shown) [RSM 29]	–	–	–	2.4 ± 0.4	4.2 ± 0.3 ×10^3	1.4 ± 0.1 ×10^9 CFU/mL	–
COc1ccc(C2CC(c3cccc(NC(C)=O)c3)=NN2c2ccc(S(N)(=O)=O)cc2)cc1 (stereo not shown) [RSM 30]	–	–	–	1.7 ± 0.3	2.4 ± 0.4 ×10^3	1.5 ± 0.02 ×10^9 CFU/mL	–
COc1ccc(C2CC(c3ccc(NC(C)=O)cc3)=NN2c2ccc(S(N)(=O)=O)cc2)cc1 (stereo not shown) [RSM 31]	–	–	–	1.4 ± 0.4	2.4 ± 0.3 ×10^3	0.9 ± 0.09 ×10^9 CFU/mL	–
CCC(=O)Nc1ccc(C2=NN(c3ccc(S(N)(=O)=O)cc3)C(c3ccc(OC)cc3)C2)cc1 (stereo not shown) [RSM 32]	–	–	–	5.5 ± 0.4	2.8 ± 1.1 ×10^3	2.4 ± 0.3 ×10^9 CFU/mL	–
CCC(=O)Nc1cccc(C2=NN(c3ccc(S(N)(=O)=O)cc3)C(c3ccc(OC)cc3)C2)c1 (stereo not shown) [RSM 33]	–	–	–	5.4 ± 0.4	2.9 ± 1.1 ×10^3	1.3 ± 0.04 ×10^9 CFU/mL	–
